pEC50, pIC50, pKd: −log10 of the molar value.
Columns and labels:
rat EP4 receptor [1] = molecular target: T1, rat EP4 receptor (Rattus norvegicus, UniProt P43114); test: Rat EP4 receptor binding assay (3H-PGE2 displacement, 293S cell membranes); settings: displacement of 3H-prostaglandin E2, 293S membranes, 1 hour at 25° C.
T1 construct: expressed in transfected cells
Description: (§1) The compounds of Formula I or II, which are useful in the methods of the present invention, bind to the prostaglandin E2 type 4 receptor (EP4 receptor). The full-length coding sequence for the human EP1 receptor is made in accordance with the procedure in Funk et al., Journal of Biological Chemistry, 1993, 268, 26767-26772. The full-length rat EP2 receptor is made in accordance with the procedure in Nemoto et al., Prostaglandins and other Lipid Mediators, 1997, 54, 713-725. The full-length coding sequence for the human EP3 receptor is made in accordance with the procedure in Regan et al., British Journal of Pharmacology, 1994, 112, 377-385. The full-length coding sequence for the rat EP4 receptor is made in accordance with the procedure in Sando et al., Biochem. Biophys. Res. Comm. 1994, 200,1329-1333. These full-length receptors are used to prepare 293S cells expressing the human EP1, rat EP2, human EP3 or rat EP4 receptors.
(§2) Human EP1, Rat EP2, Human EP3, Rat EP4 Receptor Binding Assay
(§3) The full-length receptors described above are used to prepare 293S cells expressing the EP1, EP2, EP3, and EP4 receptors.
(§4) 293S cells expressing either the human EP1, rat EP2, human EP3 or rat EP4 prostaglandin E2 receptors are generated according to methods known to those skilled in the art. Typically, PCR (polymerase chain reaction) primers corresponding to the 5′ and 3′ ends of the published full length receptor are made according to the well known methods disclosed above and are used in an RT-PCR (reverse transcriptase-polymerase chain reaction) reaction using the total RNA from human kidney (for EP1), rat kidney (for EP2), human lung (for EP3), or rat kidney (EP4) as a source. PCR products are cloned by the TA overhang method into pCR2.1 (Invitrogen Corporation, Carlsbad, Calif.) and identity of the cloned receptor is confirmed by DNA sequencing. For expression of the rat EP2 receptor, the confirmed cDNA is subcloned into the mammalian expression vector PURpCl, a vector generated by subcloning the selectable marker for puromycin resistance into the mammalian expression vector pCl (Promega, Madison, Wis.)
(§5) 293S cells are transfected with either the cloned human EP1 or EP3 receptor in pcDNA3 by electroporation. Stable cell lines expressing either the human EP1 or EP3 receptor are established following selection of transfected cells with G418. 293S cells are transfected with the cloned rat EP2 receptor in PURpCi by lipid mediated transfection. Stable cell lines expressing the rat EP2 receptor are established following selection of transfected cells with puromycin. 293S cells are transfected with the cloned rat EP4 receptor in pcDNA3 by lipid mediated transfection. Stable cell lines expressing the rat EP4 receptor are established following selection of transfected cells with Geneticin® (Invitrogen, Carlsbad, Calif.).
(§6) Clonal cell lines expressing the maximal number of receptors are chosen following a whole cell ^3H-PGE2 binding assay using unlabeled PGE2 as a competitor.
(§7) Membrane Preparation: All operations are performed at 4° C. Transfected cells expressing either prostaglandin E2 type 1, type 2, type 3, or type 4 (EP1, EP2, EP3, or EP4, respectively) receptors are harvested and suspended to 2 million cells per ml in Buffer A [50 mM Tris-HCl (pH 7.4), 10 mM MgCI2, 1 mM EDTA, 1 mM Pefabloc peptide, (Boehringer Mannheim Corp., Indianapolis, Ind.), 10 uM Phosporamidon peptide, (Sigma, St. Louis, Mo.), 1 uM pepstatin A peptide, (Sigma, St. Louis, Mo.), 10 uM elastatinal peptide, (Sigma, St. Louis, Mo.), 100 uM antipain peptide, (Sigma, St. Louis, Mo.)]. The cells are lysed by sonification with a Branson Sonifier (Branson Ultrasonics Corporation, Danbury, Conn.) in 2 fifteen-second bursts. Unlysed cells and debris are removed by centrifugation at 100 ×g for 10 min. Membranes are then harvested by centrifugation at 45,000×g for 30 minutes. […]

rat EP2 receptor = molecular target: T2, rat EP2 receptor (Rattus norvegicus, UniProt Q62928); test: Rat EP2 receptor binding assay (3H-PGE2 displacement, 293S cell membranes); settings: displacement of 3H-prostaglandin E2, 293S membranes, 1 hour at 25° C.
T2 construct: The full-length rat EP2 receptor is made in accordance with the procedure in Nemoto et al; expressed in transfected cells
T2 sequence (Q62928 whole entry): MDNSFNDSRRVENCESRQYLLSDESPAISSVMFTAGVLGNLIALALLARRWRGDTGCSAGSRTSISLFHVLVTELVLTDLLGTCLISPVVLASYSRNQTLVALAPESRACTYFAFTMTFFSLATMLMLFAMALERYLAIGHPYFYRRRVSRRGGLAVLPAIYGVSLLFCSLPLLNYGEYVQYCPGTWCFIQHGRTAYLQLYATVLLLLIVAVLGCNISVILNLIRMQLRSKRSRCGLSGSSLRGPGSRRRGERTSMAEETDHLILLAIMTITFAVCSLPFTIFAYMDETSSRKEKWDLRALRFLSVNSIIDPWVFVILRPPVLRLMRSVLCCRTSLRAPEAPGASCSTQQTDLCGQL
Description: as §1, §2, §3, §4, §5, §6, §7

human EP1 receptor = molecular target: T3, human EP1 receptor (Homo sapiens, UniProt P34995); test: Human EP1 receptor binding assay (3H-PGE2 displacement, 293S cell membranes); settings: displacement of 3H-prostaglandin E2, 293S membranes, 1 hour at 25° C.
T3 construct: expressed in transfected cells
T3 sequence (P34995 1-402): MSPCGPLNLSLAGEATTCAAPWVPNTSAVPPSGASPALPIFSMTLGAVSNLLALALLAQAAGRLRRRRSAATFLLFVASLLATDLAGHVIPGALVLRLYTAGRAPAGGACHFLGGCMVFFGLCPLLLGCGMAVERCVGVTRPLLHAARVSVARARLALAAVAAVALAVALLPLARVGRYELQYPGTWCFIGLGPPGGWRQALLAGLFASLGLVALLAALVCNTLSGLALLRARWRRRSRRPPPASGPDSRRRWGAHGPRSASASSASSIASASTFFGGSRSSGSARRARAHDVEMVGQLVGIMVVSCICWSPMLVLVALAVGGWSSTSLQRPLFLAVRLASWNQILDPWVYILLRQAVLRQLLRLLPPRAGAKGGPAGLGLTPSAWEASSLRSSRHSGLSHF
Description: as §1, §2, §3, §4, §5, §6, §7

human EP3 receptor = molecular target: T4, human EP3 receptor (Homo sapiens, UniProt P43115); test: Human EP3 receptor binding assay (3H-PGE2 displacement, 293S cell membranes); settings: displacement of 3H-prostaglandin E2, 293S membranes, 1 hour at 25° C.
T4 construct: expressed in transfected cells
T4 sequence (P43115 1-390): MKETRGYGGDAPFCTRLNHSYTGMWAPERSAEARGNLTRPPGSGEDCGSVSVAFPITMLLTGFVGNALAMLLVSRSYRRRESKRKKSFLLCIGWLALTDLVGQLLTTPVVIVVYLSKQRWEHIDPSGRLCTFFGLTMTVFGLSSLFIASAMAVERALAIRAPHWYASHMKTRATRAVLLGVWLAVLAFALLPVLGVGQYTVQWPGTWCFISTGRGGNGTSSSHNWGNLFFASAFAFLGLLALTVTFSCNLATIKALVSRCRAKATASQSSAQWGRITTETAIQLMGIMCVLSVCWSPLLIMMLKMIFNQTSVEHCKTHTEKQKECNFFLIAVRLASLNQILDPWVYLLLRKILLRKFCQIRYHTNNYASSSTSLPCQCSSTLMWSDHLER
Description: as §1, §2, §3, §4, §5, §6, §7

rat EP4 receptor [2] = molecular target: T1, rat EP4 receptor; test: Cyclic AMP elevation in 293S cell lines stably overexpressing recombinant rat EP4 receptors; format: cell-based; settings: 293S cells expressing rat EP4, 1 mM IBMX, 12 minutes at 37° C.; read-out: EC50 in the cAMP (rat EP4) elevation assay
Description: Determination of Cyclic AMP Elevation in 293S Cell Lines Stably Overexpressing Recombinant Rat EP4 Receptors Assay
cDNA representing the complete open reading frame of the rat EP4 receptor is generated by reverse transcriptase polymerase chain reaction using oligonucleotide primers based on published sequences. The full length coding sequence for the rat EP4 receptor is made in accordance with the procedure in Sando et al., Biochem. Biophys. Res. Comm. 1994, 200, 1329-1333, and RNA from rat kidney (EP4) as templates. 293S cells are transfected with the cloned rat EP4 receptor in pcDNA3 by lipid mediated transfection. Stable cell lines expressing the rat EP4 receptor are established following selection of transfected cells with Geneticin® (Invitrogen Corporation, Carlsbad, Calif.).
(§8) Clonal cell lines expressing the maximal number of receptors are chosen following a whole cell ^3H-PGE2 binding assay using unlabeled PGE2 as a competitor. […] Constitutive expression of the receptor in parental 293-S cells is negligible. A stable cell line containing the rat EP4 receptor is grown in Dulbecco's Mosified Eagle Medium/F12 (DMEM/F12) containing 10% fetal bovine serum and G418 (500 μg/ml) to 80% confluency.
cAMP responses in the 293-S/EP4 lines are determined by detaching cells from culture flasks in 1 ml of calcium (Ca++) and magnesium (Mg++) deficient phosphate buffered saline (PBS) via vigorous pounding and then rinsing the cells with calcium (Ca++) and magnesium (Mg++) deficient phosphate buffered saline (PBS). The cells are resuspended in MEM (Minimum Essential Medium), 1% BSA (bovine serum albumin), 50 mM HEPES (N-[2-Hydroxyethyl]piperazine-N′-[2-ethanesulfonic acid]) at 37° C. The cell suspension is counted on a hemacytometer and diluted by adding MEM (Minimum Essential Medium) to a final concentration of 1×10^6 cells/ml, and adding 3-isobutyl-1-methylxanthine (IBMX) to a final concentration of 1 mM. 200 microliters of cell suspension is immediately aliquoted into individual tubes and incubated for 10 minutes, uncovered, at 37° C., 5% CO2, 95% relative humidity. The compound of Formula I or II to be tested in either dimethylsulfoxide (DMSO) or ethanol is then added to cells at 1:100 dilutions such that the final DMSO or ethanol concentration is 1%. Typically, the cells are treated with 6-8 different concentrations (in 1 log increments, such as those described below) of the compound of Formula I or II. Typical concentrations of the compound of Formula I or II in this assay are between 10^−5M to 10^−10M. For example, a six point compound dose response assay tests the compound of Formula I or II at concentrations of 10^−5M, 10^−6M, 10^−7M, 10^−8M, 10^−9M and 10^—10M. Immediately after adding the test compound, the tubes are covered, mixed by inverting two times, and incubated at 37° C. for 12 minutes. Samples are then lysed by incubation at 100° C. for 10 minutes and immediately cooled on ice for 5 minutes to approximately 4° C. Cellular debris is pelleted by centrifugation at 3500×g for 5 minutes at approximately 4° C., and cleared lysates are transferred to fresh tubes. cAMP concentrations are determined using a commercially available ^125I-cAMP radioimmunoassay (RIA) kit (NEK-033, Perkin-Elmer Life Sciences, Inc., Boston, Mass.). The cleared lysates are diluted 1:100 in cAMP RIA assay buffer (included in kit) and centrifuged again. 50 microliters of the resulting supernatant is transferred to a 12×75 mm glass tube and data is collected by scintillation counting using a Wallac Cobra II Gamma Counter (Perkin-Elmer Wallac, Inc., Gaithersburg, Md.). EC50 calculations are performed on a calculator using linear regression analysis on the linear portion of the dose response curves or using Data Fitter.

rat EP4 receptor [3] = molecular target: T1, rat EP4 receptor; test: Whole cell 3H-PGE2 binding, Scatchard analysis of 293S/EP4 transfectants; settings: cell lines selected for compound screening
Protocol: as §8

T1 sequence (P43114 whole entry): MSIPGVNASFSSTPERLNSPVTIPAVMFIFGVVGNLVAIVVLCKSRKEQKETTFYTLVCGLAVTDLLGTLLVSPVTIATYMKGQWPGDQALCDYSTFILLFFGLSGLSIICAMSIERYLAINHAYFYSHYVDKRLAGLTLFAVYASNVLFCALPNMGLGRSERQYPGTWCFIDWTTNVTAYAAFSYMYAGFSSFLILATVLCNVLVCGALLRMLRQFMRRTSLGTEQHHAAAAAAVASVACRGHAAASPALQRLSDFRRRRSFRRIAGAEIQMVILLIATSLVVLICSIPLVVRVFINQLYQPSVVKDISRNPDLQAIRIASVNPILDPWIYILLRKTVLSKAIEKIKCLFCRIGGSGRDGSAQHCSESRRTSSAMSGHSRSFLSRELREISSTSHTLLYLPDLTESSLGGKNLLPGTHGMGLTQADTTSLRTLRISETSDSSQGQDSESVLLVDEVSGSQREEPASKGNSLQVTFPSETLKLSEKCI

Row | Structure (SMILES) | pIC50 (rat EP4 receptor [1]) | pIC50 (rat EP2 receptor) | pIC50 (human EP1 receptor) | pIC50 (human EP3 receptor) | pEC50 (rat EP4 receptor [2]) | pKd (rat EP4 receptor [3])
1 | O=C1CCC(CCC(O)Cc2ccc(F)cc2)N1CCCCCCc1nn[nH]n1 (stereo not drawn) [Example 5, 5-[4-(4-Fluoro-phenyl)-3-hydroxy-butyl]-1-[6-(2H-tetrazol-5-yl)-hexyl]-pyrrolidin-2-one] | 6.29 | < 5.49 | < 5.49 | < 5.49 | – | –
2 | O=C1CCC(CCC(O)Cc2cccc(F)c2)N1CCCCCCc1nn[nH]n1 (stereo not drawn) [Example 7, 5-[4-(3-Fluoro-phenyl)-3-hydroxy-butyl]-1-[6-(2H-tetrazol-5-yl)-hexyl]-pyrrolidin-2-one] | 7.02 | < 5.49 | – | – | 6.70 | –
3 | O=C1CC[C@H](CC[C@@H](O)Cc2cccc(Cl)c2)N1CCCCCCc1nn[nH]n1 [Example 8, 5S-[4-(3-Chloro-phenyl)-3R-hydroxy-butyl]-1-[6-(2H-tetrazol-5-yl)-hexyl]-pyrrolidin-2-one] | 7.55 | < 5.49 | – | – | 7.61 | –
4 | O=C(O)CCCCCCN1C(=O)CC[C@@H]1CCC(O)Cc1cccc(Oc2ccccc2)c1 (stereo partly drawn) [Example 10, 7-{2S-[3-Hydroxy-4-(3-phenoxy-phenyl)-butyl]-5-oxo-pyrrolidin-1-yl}-heptanoic acid] | 6.27 | – | – | – | – | –
5 | CCCCC[C@H](O)/C=C/[C@H]1[C@H](O)CC(=O)[C@@H]1C/C=C\CCCC(=O)O [PGE2, Prostaglandin E2] | – | – | – | – | – | 8.54
